Read-outs that look alike come from different tables or passages of the source.
How the values were obtained:
Colon cancer HT29 = test: Cell proliferative activity (MTT / cck-8); assay type: cell-based; conditions: Homo sapiens, HT-29, read-out: Half-Inhibitory Concentration IC50 HT29
HDAC1 = biological target: T1, HDAC1 (Homo sapiens, UniProt Q13547); test: HDAC inhibitory activity, fluorescence-coupled acetylated peptide substrate assay (Lys-Ac-AMC); assay type: biochemical
T1 construct: purchased BPS Bioscience
Procedure: (§1) The HDAC inhibitory activity was determined by fluorescence-coupled acetylated peptide substrate assay (Lys-Ac-AMC). HDAC1 protein was purchased from BPS Bioscience, and the reaction buffer system was a modified tris(hydroxymethyl)aminomethane buffer (pH 7.0). The small molecule compounds of the present invention were prepared by being dissolved in 100% DMSO. HDAC was prepared in a buffer at a certain concentration as an enzyme solution; trypsin and fluorescent group 4-amino-7-coumarin coupled-acetylated peptide (Ac-peptide) substrate were prepared in a buffer at a certain concentration as a substrate solution. The compounds were added into the reaction wells in a 384-well plate at a designed concentration of 10 μM, 1 μM, 0.5 μM, 0.1 μM, 0.05 μM, 0.01 μM, 0.005 μM, 0.001 μM, and 0.00005 μM, respectively, and then 15 μl of the HDAC solution was added into the reaction wells (15 μl of blank buffer to the control well). […] The results were analyzed by GraphPad Prism software and IC50 values were calculated according to the formula: Y=Background Data+(Top Data−Background Data)/(1+10^((Log IC50−X) a curve slope)), where Y: the inhibition rate (%) and X: the concentration of the compound.

Ovarian cancer A2780s = test: Cell proliferative activity (MTT / cck-8); assay type: cell-based; conditions: Homo sapiens, read-out: Half-Inhibitory Concentration IC50 A2780s
HDAC10 = HDAC10 (Homo sapiens, UniProt Q969S8); conditions: read-out: IC50 HDAC10; Table 4, Class IIb
Procedure: as §1

HCT116 cells = test: Therapeutic effect on the colon cancer HCT116 model (intravenous)
Breast cancer SKBR3 = test: Cell proliferative activity (MTT / cck-8); assay type: cell-based; conditions: Homo sapiens, SK-BR-3, read-out: Half-Inhibitory Concentration IC50 SKBR3
[1] = Assay on the bioavailability in SD rats (plasma, LC-MS/MS); assay type: in vivo; conditions: for Area under the curve / Clearance rate / Distribution volume / Half-life / Maximum plasma concentration: dose 12 mg/kg (Table 6)
[2] = test system: acetylation level of HDAC substrate (Ac-α-tubulin, Ac-H3); test: Western blot assay for detecting the level of acetylated proteins; assay type: cell-based; conditions: HCT116 cells (FIG. 3) or MV4-11 cells (FIG. 4)
Procedure: The compounds or the positive control compound were added into each group of cells already adherent to the walls (2×10^6 HCT116 cells or 5×10^6 MV4-11 cells) at a designed concentration. After treatment for 4 hours, trypsin was added for digestion, followed by collecting the cells. After washing with cold PBS twice, the cells were lysed by adding RIPA lysis solution (which was purchased from Beyotime, Art. No.: P0013B, adding 1 mM PMSF before use), allowing for lysis on ice for 30 minutes while vortexing at intervals. The lysate was subjected to ultrasonic treatment on an ice bath (ultrasonicated for 3 seconds and repeated 5 times for each group at an interval of 10 seconds). The supernatant was collected by centrifugation at 12,000 g for 20 min at 4° C. and then mixed the SDS-PAGE loading buffer (purchased from Beyotime, Art. No.: P0015F). The mixture was heated in boiling water for 5 minutes to obtain a protein sample. The protein concentration of the sample was quantified by BCA method. 20 […] total protein from each group was subjected to 15% SDS-PAGE electrophoresis, and 5μl of a pre-stained protein marker (purchased from Thermo, Art. No.: 26616) was loaded to an additional selective lane in order to compare protein molecular weights as well as to detect the transmembrane result. When the bromophenol blue bands ran close to the bottom of the gel, the electrophoresis was terminated and the proteins on the gel were transferred to a PVDF membrane at a pore size of 0.22 μm. After 1.5 hours of transmembrane at a constant current of 200 mA, the PVDF membrane was removed and blocked in 5% skimmed milk for 1 hour. After completion of blocking, the membrane was incubated with the primary antibody (Ac-H3 antibody was purchased from Santa Cruz, Art. No.: sc-56616; Ac-α-tubulin antibody was purchased from Santa Cruz, Art. No.: sc-23950) overnight at 4° C. and then washed with TBS/T for 10 minutes for 3 times. The membrane was incubated with the horseradish peroxidase-coupled secondary antibody at room temperature for 1 hour, and then washed with TBS/T for 10 minutes for 3 times. After washing with TBS for 5 minutes, the membrane was exposed and developed by using a film in the darkroom. The detected GAPDH protein was an internal reference protein (GAPDH antibody was purchased from ZSGB-Bio, Art. No.: TA-08).

HDAC8 = biological target: T2, HDAC8 (Homo sapiens, UniProt Q9BY41); test: HDAC inhibitory activity, fluorescence-coupled acetylated peptide substrate assay
T2 sequence (Q9BY41 1-377): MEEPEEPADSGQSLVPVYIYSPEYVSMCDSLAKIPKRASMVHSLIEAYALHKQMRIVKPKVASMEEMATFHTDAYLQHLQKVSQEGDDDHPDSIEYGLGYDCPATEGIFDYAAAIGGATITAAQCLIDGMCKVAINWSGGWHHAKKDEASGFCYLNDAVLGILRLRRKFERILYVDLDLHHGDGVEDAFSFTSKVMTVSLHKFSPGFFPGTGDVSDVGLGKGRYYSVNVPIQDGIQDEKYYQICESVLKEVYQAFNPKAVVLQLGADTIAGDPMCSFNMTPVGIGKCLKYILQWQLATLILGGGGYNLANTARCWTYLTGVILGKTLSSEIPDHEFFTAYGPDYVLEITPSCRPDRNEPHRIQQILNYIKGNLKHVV

MV4-11 cells = test: Therapeutic effect on the MV4-11 acute myeloid leukemia model; assay type: in vivo, NOD/SCID mice; conditions: MV4-11 model, 50 mg/kg intravenously once every other day, 12 times
A2780s cells = conditions: A2780s model, 16 times; for tumor inhibitory rate: vs solvent group
[3] = 50 mg/kg intragastrically once every other day

T1 sequence (Q13547 whole entry): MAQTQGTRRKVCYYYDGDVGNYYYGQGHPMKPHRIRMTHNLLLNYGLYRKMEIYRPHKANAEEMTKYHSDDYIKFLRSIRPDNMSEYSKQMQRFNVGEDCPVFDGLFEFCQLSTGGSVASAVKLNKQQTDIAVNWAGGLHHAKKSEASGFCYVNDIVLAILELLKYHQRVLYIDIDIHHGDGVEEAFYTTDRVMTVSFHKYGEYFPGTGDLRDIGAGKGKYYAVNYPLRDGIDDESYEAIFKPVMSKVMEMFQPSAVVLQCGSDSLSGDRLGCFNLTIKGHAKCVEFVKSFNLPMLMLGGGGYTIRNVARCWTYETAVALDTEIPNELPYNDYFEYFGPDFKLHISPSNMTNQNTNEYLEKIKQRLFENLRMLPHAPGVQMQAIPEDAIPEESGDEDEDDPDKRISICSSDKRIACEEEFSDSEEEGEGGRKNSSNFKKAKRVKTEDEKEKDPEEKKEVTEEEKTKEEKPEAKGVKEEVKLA
HDAC10, sequence (Q969S8 whole entry): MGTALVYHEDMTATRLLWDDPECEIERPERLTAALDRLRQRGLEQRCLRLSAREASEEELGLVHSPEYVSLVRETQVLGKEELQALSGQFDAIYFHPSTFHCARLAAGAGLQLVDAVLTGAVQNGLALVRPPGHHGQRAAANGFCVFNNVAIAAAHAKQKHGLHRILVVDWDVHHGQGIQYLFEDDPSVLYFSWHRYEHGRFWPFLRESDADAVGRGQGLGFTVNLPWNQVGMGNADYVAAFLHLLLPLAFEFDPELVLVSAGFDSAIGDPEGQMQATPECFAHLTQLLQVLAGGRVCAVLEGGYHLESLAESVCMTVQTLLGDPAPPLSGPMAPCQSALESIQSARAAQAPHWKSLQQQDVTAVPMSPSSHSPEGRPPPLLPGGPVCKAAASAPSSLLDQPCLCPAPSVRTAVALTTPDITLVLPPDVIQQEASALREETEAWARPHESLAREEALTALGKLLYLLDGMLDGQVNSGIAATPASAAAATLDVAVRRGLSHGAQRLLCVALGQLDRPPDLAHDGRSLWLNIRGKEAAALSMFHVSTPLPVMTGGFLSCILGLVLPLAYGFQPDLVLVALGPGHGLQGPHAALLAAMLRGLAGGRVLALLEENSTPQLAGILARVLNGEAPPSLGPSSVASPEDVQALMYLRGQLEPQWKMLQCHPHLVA

**Q.** What does the source list for `COc1ccc(N(C)c2nc(C)nc3ccccc23)cc1OCCCC(=O)NO` [III-2, N-hydroxy-4-(2-methoxy-5-(methyl(2-methyl-4-quinazolinyl)amino)phenoxy) butanamide]?
**A.** IC50 (Colon cancer HT29): 72 ± 37 nM; IC50 (HDAC1; Table 2): 100 to 1000 nM; IC50 (HDAC1; Table 4, Class I): 422 ± 1 nM; IC50 (Ovarian cancer A2780s): 46 ± 11 nM; IC50 (HDAC10): 1180 ± 168 nM; survival time of mice (HCT116 cells; 50 mg/kg intravenously once every other day, 9 times, vs blank control, P<0.01): significantly prolonged the survival time of mice; effect prolonging the survival time compared with positive control group (HCT116 cells; 50 mg/kg intravenously, SAHA 50 mg/kg intraperitoneally): superior to that of the positive control group; IC50 (Breast cancer SKBR3): 22 ± 8 nM; Area under the curve ([1]; intravenous administration): 2434.117 μg/L · h; Clearance rate ([1]; intravenous administration): 116.8 mL/min/kg; Distribution volume ([1]; intravenous administration): 61.263 L/kg; Half-life ([1]; intravenous administration): 7.658 h; Maximum plasma concentration ([1]; intravenous administration): 2213.217 µg/L; Bioavailability ([1]; oral administration): 47.0%; Area under the curve ([1]; oral administration): 1242.234 μg/L · h; Clearance rate ([1]; oral administration): 214.62 mL/min/kg; Distribution volume ([1]; oral administration): 154.811 L/kg; Half-life ([1]; oral administration): 9.62 h; Maximum plasma concentration ([1]; oral administration): 238.133 µg/L; acetylation of H3 (Ac-H3) [2]: deacetylation of Ac-H3 by the compound III-2 was also demonstrated; acetylation of α-tubulin [2]: up-regulate the acetylated α-tubulin protease in a dose-dependent manner; IC50 (HDAC8; IC50 HDAC8, Table 2): > 1000 nM; IC50 (HDAC8; read-out: IC50 HDAC8, Table 4, Class I): 3400 ± 487 nM; activity compared with positive control SAHA (MV4-11 cells): superior to that of the positive control group SAHA; tumor growth (MV4-11 cells; compared with blank control, P<0.01): significantly inhibited tumor growth; tumor inhibitory rate (A2780s cells; 12.5 mg/kg intragastrically once every other day): 78.49%; tumor inhibitory rate (A2780s cells; 25 mg/kg intragastrically once every other day): 82.02%; death of mice during the experiment (A2780s cells; [3]): one mouse died; tumor inhibitory rate (A2780s cells; [3]): 81.70%

Source: patent US10532053B2, “Histone deacetylase inhibitor, and preparation method and use thereof” (GUANGDONG ZHONGSHENG PHARMACEUTICAL CO., LTD, priority 2015, dated 2020)
